Measurements as given in US7507742B2, “Spirocyclic derivatives” (Pfizer Inc., priority 2005, dated 2009).

Legend:
[1] = Free fraction of unbound drug in plasma used for the human estimate; format: in vitro ADME; conditions: Table 7, used to convert Clu man to Clman; for fraction unbound: human, plasma, read-out: fup (free fraction of unbound drug in plasma)
Source text: (§1) Based on the above pharmacokinetic data in the rat, the likely human pharmacokinetics of the compounds of Examples 1 and 2, and that of Compound A, can be estimated as follows. • Scaling the unbound rat plasma clearance (Clu rat) observed following intravenous administration to estimate an unbound human plasma clearance (Clu man) using the following relationship: Clu man=Clu rat*(BWman/BWrat)^0.75 where BWman & BWrat are the average body weights of man (70 kg) and rat (0.25 kg) respectively, and units of clearance are in ml/min. • Converting Clu man to estimate total blood clearance in man (Clman): Clman=[(Clu man)*fup]/B:P where fup is the free fraction of unbound drug in plasma and B:P is the blood to plasma ratio in human blood. • An estimate of human half-life is presented for each compound, derived using the relationship: T1/2=[In(2)*Vd]/Cl where T1/2 is the estimated human half-life in hours, Vd is the volume of distribution in man (assumed to be 0.2 L/kg, due to the physicochemistry of this series) and Cl is the human clearance.

[2] = Blood to plasma ratio in human blood; format: in vitro ADME; conditions: for blood plasma ratio: human, read-out: B:P (blood to plasma ratio)
Source text: as §1

Rat IV pharmacokinetics = format: in vivo
Procedure: The pharmacokinetic properties of the compounds of Examples 1 and 2 were tested in the rat model described below. The compound of Example 75 of WO 02/074754, 5′-carboxypropoxy-8′-chloro-spiro[cyclohexane-1-4′-(3′,4′-dihydro)quinazolin]-2′(1′H)-one (hereinafter “Compound A”), which is believed to represent the closest state of the art, was used as a comparison.
The test compounds were administered to male rats (each rat receiving one compound), via the tail vein, at a dose of 1 mg/kg (0.08 mg/kg for the compound of Example 1). Blood samples were withdrawn from the rats via a surgically implanted jugular vein cannula at predetermined time-points after administration, and centrifuged to produce plasma. Plasma samples were analysed via a specific LC-MS/MS assay for the quantification of drug in plasma. The resulting plasma concentration-time curves were interrogated using a non-compartmental pharmacokinetic analysis in order to understand the disposition of each compound. The resulting output was subsequently used to estimate the likely human pharmacokinetic profile, as described below.
The mean, dose normalised, pharmacokinetic profiles of the compounds of Examples 1 and 2, as well as that of Compound A, following 1 mg/kg intravenous administration are shown in Table 6 below and in FIG. 1.

Human Hepatocytes = assay: Human hepatic metabolic stability in cryopreserved human hepatocytes; format: in vitro ADME; conditions: intrinsic clearance (apparent); 1 μM substrate, 0.5 million viable cells/mL, 37° C., 5 donors
Procedure: (§2) The human hepatic metabolic stability of the compounds of Examples 1-7 of the present application were assessed in the model described below. The compound of Example 75 of WO 02/074754, 5′-carboxypropoxy-8′-chloro-spiro[cyclohexane-1-4′-(3′,4′-dihydro)quinazolin]-2′(1′H)-one (hereinafter “Compound A”), which is believed to represent the closest state of the art, was used as a comparison.
(§3) Hepatocytes are used as an in vitro system to monitor hepatic metabolism as these intact cells contain all the hepatic enzymes found in vivo, including phase I enzymes, such as cytochrome P450 oxidases (CYPs), aldehyde oxidases and monoamine oxidases (MAOs), and phase 11 enzymes, such as UDP-glucuronyltransferases and sulfotransferases. Cryopreserved human hepatocytes are prepared from 5 donors and suspended in Williams' E media. 4-(2-hydroxyethyl)-1-piperazineethanesulfonic acid (HEPES) is added to a final concentration of 50 mM and pH is adjusted to 7.4. Test substrates are dissolved in DMSO are added to the hepatocytes to give a substrate concentration of 1 μM, with a final DMSO concentration in the incubation below 0.1%. The experiments are performed in 96 or 384 well plates at 37° C., with a hepatocyte density of 0.5 million viable cells/mL. Sampling times of 10, 20, 30, 60, 90, and 120 minutes are used and analytical quantitation is by LC-MS/MS. The intrinsic clearance (apparent) is calculated using the formula: CLint, app=[−slope/0.5 M cells/mL]·1000 μL/mL=μL/min/M cells.
(§4) The human hepatic metabolic stability of the compounds of the present invention was tested according to the above protocol.

[3] = Estimate of human pharmacokinetics by scaling rat unbound clearance; conditions: for Clu man: estimated human clearance scaled from rat: Clu rat*(BWman/BWrat)^0.75, 70 kg man, 0.25 kg rat; for half-life: human, T1/2=[ln(2)*Vd]/Cl, Vd in man assumed 0.2 L/kg, read-out: Estimated T1/2 (human half-life) (converted)
Source text: as §1

[4] = Fraction unbound in rat plasma; format: in vitro ADME; conditions: for fraction unbound: read-out: fup (fraction unbound in rat plasma)
[5] = Human hepatic metabolic stability in cryopreserved human hepatocytes; format: in vitro ADME; conditions: human, hepatocytes, pH 7.4
Procedure: as §2, §3, §4

PDE7A = molecular target: T1, PDE7A (Homo sapiens, UniProt Q13946); assay: PDE7A inhibition, [3H]-cAMP scintillation proximity assay; format: biochemical; conditions: IC50 converted to Ki by Cheng-Prussof equation; cell lysate with full length enzyme, ~25 nM cAMP
T1 construct: carried out using cell lysate containing full length PDE7A and PDE7B enzyme; made in house
Procedure: (§5) The ability of the compounds of formula (I) to inhibit PDE7 may be measured using the following assay protocol.
(§6) PDE7A and PDE7B enzymes catalyse the hydrolysis of 3′,5′-cyclic adenosine monophosphate (cAMP) to the 5′adenosine monophosphate, 5′AMP. In a multiwell plate; PDE enzyme, [^3H]-cAMP and the tested compounds, are incubated at room temperature. The incubation is terminated by addition of commercially available yttrium silicate scintillation proximity assay (SPA) beads containing zinc sulphate. The yttrium silicate beads preferentially bind linear nucleotides, thus the product of the enzyme reaction, [^3H]-5′AMP binds to the bead to produce a light signal, which is detected by a scintillation counter. The amount of signal produced directly correlates with the amount of product formed, and thus the activity of the enzyme. The maximum signal is obtained where enzyme and substrate are incubated alone. The background signal is measured from wells either containing no enzyme, or from wells containing a supra-maximal concentration of a known PDE7A/B inhibitor. Each purified batch of enzyme is quality controlled and its Km, Vmax and specific activity determined from kinetic studies before use in compound inhibition studies. The inhibition of the enzyme, by a test compound, is calculated relative to the maximum and background responses.
(§7) The optimisation of this assay has been carried out using cell lysate containing full length PDE7A and PDE7B enzyme. The concentration of the enzyme in this cell lysate sample is unknown, so the specific activity of the cell lysate is used as a measure to ensure that the same activity per well is used despite any batch-to-batch variation of concentration/activity.
(§8) PDE7 stock enzyme was prepared and kept at −20° C. in appropriately sized aliquots to reduce the number of freeze/thaw cycles. […] PDE7A is diluted to 1/8000 and PDE7B to 1/10000.
(§9) The final assay [cAMP] of ˜25 nM is required, so ˜50 nM [^3H]-cAMP was prepared.
(§10) Compound dilutions and “background” wells were made 30 stronger than required in the assay plate to allow for 1 μl compound to be diluted by 29 μl of other assay components (14 μl enzyme and 15 μl radioligand). Thus for a final assay concentration of 10 μM, the compound must be at 300 μM in the compound addition plate. 4 mM stocks of compound are supplied in 100% DMSO (or are made up @ 4 mM from powder submissions). This requires 1/13.33 dilution in DMSO to be made.
(§11) 1 μl test compound was transferred into a suitable multi-well assay plate immediately prior to reagent assay addition, 14 μl enzyme solution was then added to the assay plate, followed by 15 μl substrate solution (ie: final assay volume 30 μl, with a final screening compound concentration of […]). The plate was then sealed using a plate sealer and incubated at room temperature for 45 min on the plate shaker.
(§12) 30 μl Yttrium Silicate PDE4 SPA beads were then added, ensuring constant stirring of the beads to give even distribution in the assay plate. The plate was then sealed using a plate sealer and incubated at room temperature for 30 mins on the plate shaker. The beads were then allowed to settle for 30 mins, before spinning the plates for 1 min at 200 g.
(§13) The plates were then read on a suitable radioactive counter, for example NXT-TopCount™ (available from Perkin Elmer) using the relevant protocol (30 second read time per well).
(§14) The data was fitted to a sigmoid curve using a least squares algorithm.
(§15) The IC50 value was converted to a K^i value using the Cheng-Prussof equation: […]

PDE7B = molecular target: T2, PDE7B (Homo sapiens, UniProt Q9NP56); assay: PDE7B inhibition, [3H]-cAMP scintillation proximity assay; format: biochemical; conditions: IC50 converted to Ki by Cheng-Prussof equation; cell lysate with full length enzyme, ~25 nM cAMP
T2 construct: carried out using cell lysate containing full length PDE7A and PDE7B enzyme; made in house
Procedure: as §5, §6, §7, §8, §9, §10, §11, §12, §13, §14, §15

[6] = male rats, intravenous 1 mg/kg (0.08 mg/kg for Example 1)

T2 sequence (Q9NP56 whole entry, species assumed): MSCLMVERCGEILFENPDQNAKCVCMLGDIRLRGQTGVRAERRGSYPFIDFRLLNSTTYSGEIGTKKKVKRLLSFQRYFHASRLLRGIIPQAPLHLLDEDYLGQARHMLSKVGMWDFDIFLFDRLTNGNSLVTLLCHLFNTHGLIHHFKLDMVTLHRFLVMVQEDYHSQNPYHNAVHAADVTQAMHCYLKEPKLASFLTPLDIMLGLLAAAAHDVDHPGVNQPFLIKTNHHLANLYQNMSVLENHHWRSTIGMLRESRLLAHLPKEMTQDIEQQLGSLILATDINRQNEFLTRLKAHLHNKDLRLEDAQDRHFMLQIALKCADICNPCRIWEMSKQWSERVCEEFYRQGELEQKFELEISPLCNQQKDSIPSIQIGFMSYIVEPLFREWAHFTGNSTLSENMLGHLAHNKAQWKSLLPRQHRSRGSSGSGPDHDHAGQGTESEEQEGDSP
T1 sequence (Q13946 whole entry, species assumed): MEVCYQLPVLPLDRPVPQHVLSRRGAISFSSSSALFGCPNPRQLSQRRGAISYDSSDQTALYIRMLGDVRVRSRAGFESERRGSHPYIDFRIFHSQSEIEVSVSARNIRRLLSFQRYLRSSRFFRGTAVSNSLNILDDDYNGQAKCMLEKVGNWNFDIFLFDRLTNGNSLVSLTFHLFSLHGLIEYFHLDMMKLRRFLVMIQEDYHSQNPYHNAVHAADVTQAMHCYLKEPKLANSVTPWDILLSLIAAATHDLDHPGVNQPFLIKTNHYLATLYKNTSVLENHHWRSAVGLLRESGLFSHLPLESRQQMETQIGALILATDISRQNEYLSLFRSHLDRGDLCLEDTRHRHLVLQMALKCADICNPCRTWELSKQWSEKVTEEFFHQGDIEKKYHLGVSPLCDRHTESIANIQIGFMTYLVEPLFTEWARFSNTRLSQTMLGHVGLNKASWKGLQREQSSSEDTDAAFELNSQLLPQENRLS

## O=C(O)CCCOc1ccc(Cl)c2c1C1(CCCCC1)NC(=O)N2 [Compound A, 5′-carboxypropoxy-8′-chloro-spiro[cyclohexane-1-4′-(3′,4′-dihydro)quinazolin]-2′(1′H)-one, reference compound]
[1]
  fup (free fraction of unbound drug in plasma): 0.03
[2]
  B:P (blood to plasma ratio): 0.6
Rat IV pharmacokinetics; Clu = Cl/fup, male rats, intravenous
  Clu (unbound rat plasma clearance): 156 mL/min/kg
Rat IV pharmacokinetics; [6]
  T1/2 (half life): <1 h
  Vd (volume of distribution in rat): 0.4 L/kg
Rat IV pharmacokinetics; male rats, intravenous 1 mg/kg (0.08 mg/kg for Example 1), mean, dose normalised
  Cl (rat clearance): 7 mL/min/kg
Rat IV pharmacokinetics; unbound rat plasma clearance after intravenous administration, as repeated in Table 7
  Clu rat: 156 mL/min/kg
Human Hepatocytes
  Human Hepatocytes CLint: 25 μL/min/M cells
[3]
  Clu man: 1.9 mL/min/kg
[4]
  fup (fraction unbound in rat plasma): 0.045

## O=C1Nc2c(Cl)ccc(O[C@H]3C[C@@H](C(=O)O)C3)c2C2(CCCCC2)N1 [Example 1, Cis-3-[(8′-chloro-2′-oxo-2′,3′-dihydro-1′H-spiro[cyclohexane-1,4′-quinazolin]-5′-yl)oxy]cyclobutanecarboxylic acid]
[1]
  fraction unbound: 0.07
[2]
  blood plasma ratio: 0.6
Rat IV pharmacokinetics; male, rat, in vivo, iv
  Clu (unbound rat plasma clearance): 27 mL/min/kg
  Clu rat: 27 mL/min/kg
  clearance: 1.9 mL/min/kg
  half-life: 4 h
Rat IV pharmacokinetics; rat, in vivo, iv
  Vd (volume of distribution in rat): 0.6 L/kg
[5]
  hepatocyte CLint at 1 μM: < 5 µL/min/1e6 cells
[3]
  Clu man: 0.8 mL/min/kg
  half-life: 3 h
[4]
  fraction unbound: 0.07
PDE7A
  Ki: 1.9 nM
PDE7B
  Ki: 4.6 nM

## O=C1Nc2c(Cl)ccc(O[C@H]3C[C@H](C(=O)O)C3)c2C2(CCCCC2)N1 [Example 2]
[1]
  fraction unbound: 0.01
[2]
  blood plasma ratio: 0.7
Rat IV pharmacokinetics; male, rat, in vivo, iv
  Clu (unbound rat plasma clearance): 70 mL/min/kg
  Clu rat: 70 mL/min/kg
  clearance: 0.7 mL/min/kg
  half-life: 11 h
Rat IV pharmacokinetics; rat, in vivo, iv
  Vd (volume of distribution in rat): 0.7 L/kg
[5]
  hepatocyte CLint at 1 μM: < 5 µL/min/1e6 cells
[3]
  Clu man: 0.2 mL/min/kg
  half-life: 10 h
[4]
  fraction unbound: 0.1
PDE7A
  Ki: 3.1 nM
PDE7B
  Ki: 13.4 nM

## O=C1Nc2c(F)ccc(OCC3CC(C(=O)O)C3)c2C2(CCCCC2)N1 (centres unmarked) [Example 3, 3-[(8′-fluoro-2′-oxo-2′,3′-dihydro-1′H-spiro[cyclohexane-1,4′-quinazolin]-5′-yl)oxymethyl]cyclobutanecarboxylic acid]
[5]
  hepatocyte CLint at 1 μM: < 5 µL/min/1e6 cells
PDE7A
  Ki: 15.6 nM
PDE7B
  Ki: 108 nM

## N#Cc1ccc(O[C@H]2C[C@H](C(=O)O)C2)c2c1NC(=O)NC21CCCCC1 [Example 4, trans-3-[(8′-cyano-2′-oxo-2′,3′-dihydro-1′H-spiro[cyclohexane-1,4′-quinazolin]-5′-yl)oxy]cyclobutanecarboxylic acid]
[5]
  hepatocyte CLint at 1 μM: < 5 µL/min/1e6 cells
PDE7A
  Ki: 11.6 nM
PDE7B
  Ki: 144 nM

## O=C1Nc2c(F)ccc(OCC3(C(=O)O)CCC3)c2C2(CCCCC2)N1 [Example 5, 1-[(8′-fluoro-2′-oxo-2′,3′-dihydro-1′H-spiro[cyclohexane-1,4′-quinazolin]-5′-yl)oxymethyl]cyclobutanecarboxylic acid]
[5]
  hepatocyte CLint at 1 μM: < 5 µL/min/1e6 cells
PDE7A
  Ki: 276 nM
PDE7B
  Ki: 1420 nM

## O=C1Nc2c(Cl)ccc(O[C@H]3C[C@H](C(=O)O)C3)c2C2(CCCCCC2)N1 [Example 6, Trans-3-[(8′-chloro-2′-oxo-2′,3′-dihydro-1′H-spiro[cycloheptyl-1,4′-quinazolin]-5′-yl)oxy]cyclobutanecarboxylic acid]
[5]
  hepatocyte CLint at 1 μM: < 5 µL/min/1e6 cells
PDE7B
  Ki: 17.6 nM

## O=C1Nc2c(Cl)ccc(O[C@H]3C[C@H](C(=O)O)C3)c2C2(CCCC2)N1 [Example 7, Trans-3-[(8′-chloro-2′-oxo-2′,3′-dihydro-1′H-spiro[cyclopentyl-1,4′-quinazolin]-5′-yl)oxy]cyclobutanecarboxylic acid]
[5]
  hepatocyte CLint at 1 μM: < 5 µL/min/1e6 cells
PDE7A
  Ki: 19.8 nM
PDE7B
  Ki: 140 nM
